Measured values taken from patent US20250296909A1, “NOVEL BENZENE DERIVATIVE AND IMMUNOSUPPRESSION-RELATED USE THEREOF” (PROVIBIO CO., LTD., priority 2021, published 2025).

Legend:
spleen T cells [1] = experiment: Cytokine secretion by anti-CD3/CD28-activated T cells (Cytometric Bead Array); assay type: cell-based, C57BL/6 mice; conditions: 30 μM
Protocol: To confirm the effect of compounds of the present invention on the secretion of cytokines by T cells, the following experiment was conducted.
Spleens were harvested and minced from C57BL/6 mice at 7 weeks of age, and single cells were isolated using a strainer (40 μm pore size, SPL). Red blood cells were removed using ACK (Ammonium-Chloride-Potassium) lysis buffer to isolate only leukocytes. These were then reacted with 10 v/v % CD90.2 microbeads (130-121-278, Miltenyi Biotech.) at 4° C. for 20 minutes, resulting in the isolation of spleen T cells from magnetic-based purification. The T cells were cultured in a 96-well plate at an amount of 2×10^5 cells/well. For T cell activation, each well was treated with anti-CD3/CD28 antibodies at a concentration of 1 μg/mL. Subsequently, Vehicle (DMSO) and compounds (Compound 14, Compound 19, Compound 26, Compound 31, Compound 35, Compound 40, Compound 41, Compound 56, Compound 69, Compound 75) at a concentration of 30 μM were treated in each well, and it was cultured at 37° C. in a 5% CO2 incubator. After 24 and 72 hours, the T cell culture medium was taken, and centrifugation was performed at 13,000 rpm for 10 minutes to obtain the supernatant.
To measure the concentration of cytokines present in the T cell culture medium, Mouse Th1/Th2/Th17 Cytokine CBA Kit (Cytometric Bead Array kit) 560485 from BD Science was utilized for flow cytometry analysis. The secretion levels of IL-2 at 24 hours after each drug treatment, and IFN-γ, TNF-α, and IL-17A at 72 hours were measured after each drug treatment.

spleen T cells [2] = experiment: T cell proliferation inhibition (CFSE, FACS), CD3/CD28-activated spleen T cells; assay type: cell-based, C57BL/6 mice
Method in brief: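 Proliferation inhibition is expressed as a percentage versus CD3/CD28-stimulated DMSO controls, from CFSE dye dilution measured by FACS after 3 days at 37 °C. Compounds at 10, 30 and 50 μM (triplicate) on anti-CD3/CD28-activated (0.5 μg/mL each) C57BL/6 mouse spleen T cells, 2×10^5 per well.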

Structure (SMILES): CCCCCCCCCCCCNC(=O)c1cccnc1N [Compound 69]
- secretion of IL-2 (spleen T cells [1]; 24 hours after treatment, FIG. 3): significant decrease
- secretion of IFN-γ (spleen T cells [1]; 72 hours after treatment): significant decrease
- secretion of IL-17A (spleen T cells [1]; 72 hours after treatment): significant decrease
- secretion of TNF-α (spleen T cells [1]; 72 hours after treatment): significant decrease
- inhibition at 10 µM (spleen T cells [2]; Mus musculus, T-cell, 72 h, Table 2, 10 μM, 3 days, relative to CD3/CD28+DMSO, read-out: Proliferation inhibition rate (%)): 99%
- inhibition at 30 µM (spleen T cells [2]; Mus musculus, T-cell, 72 h, Table 2, 30 μM, 3 days, relative to CD3/CD28+DMSO, read-out: Proliferation inhibition rate (%)): 100%
- inhibition at 50 µM (spleen T cells [2]; Mus musculus, T-cell, 72 h, Table 2, 50 μM, 3 days, relative to CD3/CD28+DMSO, read-out: Proliferation inhibition rate (%)): 100%
- cell proliferation read by FACS (FIG. 2) (spleen T cells [2]; concentrations ranging from 10 to 30 μM): inhibition of cell proliferation
